In US6207404A, “Coumarin-based CYP3A fluorescent assay reagents” (Gentest Corporation, priority 1999, dated 2001):
Values belong to the compound of their own block, whether it stands above or below them.

Columns and labels:
[1] = system: human CYP2B6; details: Code et al. 1997; Morse and Lu 1998; cited from earlier work
[2] = system: other human P450s; details: Code et al. 1997; Morse and Lu 1998; cited from earlier work
[3] = system: panel of cDNA-expressed human P450 enzymes; details: Ono et al. (1996); cited from earlier work
[4] = system: CYP3A4; details: in words; Crespi et al. 1997; cited from earlier work
[5] = target: T1, human CYP3A4 (Homo sapiens, UniProt P08684); assay: Enzyme kinetics of substrate turnover with cDNA-expressed CYP3A4 (fluorometric); format: biochemical
Experimental: The evaluation of compounds of Formula I were initially performed by measuring the kinetics of turnover using cDNA-expressed CYP3A4. In most instances, Vmax and Km values are important for the optimization of the assay conditions and for setting the parameters for inhibition experiments. Fluorometric assays for the turnover of compounds of Formula I by CYP3A4 were performed based on a modification of the method by Crespi et al. Anal Biochem. 248, 188-190, (1997), (described below).
Example Compound I. Assays were conducted in 96 well microtiter plates (Corning COSTAR, cat. no. 3915). The substrate, compound I, was prepared in acetonitrile. After cofactors addition, the plates were prewarmed to 37° C. Incubations were initiated by the addition of prewarmed buffer and enzyme. The enzymes were commercially available, baculovirus/insect cell expressed human CYP3A4 (SUPERSOMES®, GENTEST Corporation). The amount of enzyme added per well was 1 pmole. […] Fluorescence per well was measured using a BMG FLUOstar Model 403 plate scanner controlled with an IBM-compatible computer. The metabolite was measured using an excitation wavelength of 410 nm and emission wavelength of 538 nm. Data was exported and analyzed using an Excel spreadsheet. The activity was quantified by comparing to a standard curve of 7-hydroxy-4-trifluoromethyl coumarin.

[6] = system: panel of cDNA-expressed human P450 enzymes; assay: Selectivity of dealkylation in a panel of cDNA-expressed human P450 enzymes; format: biochemical
Source text: The selectivity of various P450 isoforms for dealkylation of compound I was examined using a panel of commercially available human cDNA-expressed enzymes. A substrate that is selective for a single P450 isoform (substrate is catalytically turned over by a single P450 isoform) is a desirable trait in that its activity may be examined within a heterogeneous mixture of enzymes, for example, in human liver microsomes. […] Compound I is therefore a more useful substrate for probing CYP3A activity in a heterogeneous mixture than the previous substrate BzRes. These advantages permit the specific detection of low levels of a preselected cytochrome P450 enzyme (e.g., 3A4) contained in various types of samples, e.g., tissue samples, microsomes, and so forth.
Example Compound I. Assays were conducted as described in (1) above except: incubation time was 20 min.; enzymes were commercially available, baculovirus/insect cell expressed human P450s (SUPERSOMES®, GENTEST Corporation); and the amount of enzyme added per well was 10 pmole with the exception of 2.5 pmole for CYP3A enzymes.

[7] = Solubility noted in enzyme kinetics table; format: physicochemical; details: at >200 uM
[8] = target: T1, human CYP3A4
[9] = Quantum yield of the fluorescent product; format: physicochemical; details: relative to the product of BzRes
[10] = target: T1, human CYP3A4; assay: biochemical; details: 37° C., 20 minutes

T1 sequence (P08684 whole entry): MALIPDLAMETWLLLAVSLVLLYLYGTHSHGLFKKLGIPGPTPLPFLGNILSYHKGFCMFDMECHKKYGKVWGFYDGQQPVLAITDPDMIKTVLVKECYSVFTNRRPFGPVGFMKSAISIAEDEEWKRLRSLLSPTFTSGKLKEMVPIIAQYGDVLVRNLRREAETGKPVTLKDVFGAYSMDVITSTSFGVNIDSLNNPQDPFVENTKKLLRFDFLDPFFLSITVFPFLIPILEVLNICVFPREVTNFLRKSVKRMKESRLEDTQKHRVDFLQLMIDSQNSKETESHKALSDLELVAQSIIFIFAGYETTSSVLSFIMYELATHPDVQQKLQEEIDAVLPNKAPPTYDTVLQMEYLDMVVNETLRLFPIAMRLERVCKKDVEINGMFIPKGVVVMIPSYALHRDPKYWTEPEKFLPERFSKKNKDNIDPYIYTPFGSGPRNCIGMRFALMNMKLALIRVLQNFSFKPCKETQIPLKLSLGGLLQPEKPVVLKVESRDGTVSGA

SMILES: CCOc1ccc2c(C(F)(F)F)cc(=O)oc2c1 [7-Ethoxy-4-trifluoromethylcoumarin]
O-dealkylation by human CYP2B6 [1]: O-dealkylated | O-dealkylation by other human P450s [2]: O-dealkylated

SMILES: O=c1ccc2nc3ccc(OCc4ccccc4)cc3oc-2c1 [Benzyloxyresorufin, 7-benzyloxyresorufin]
metabolism by other human cytochromes P450 [3]: significantly metabolized by other human cytochromes P450 | enzymatic turnover [4]: low enzymatic turnover | specificity [4]: poor specificity

Vmax (at 40 uM) ([5]; cDNA-expressed CYP3A4, at 40 uM substrate): 1.5 min⁻¹ | Km at 0.75 h ([5]; human, cDNA-expressed CYP3A4, 1 pmole/well, 37° C., 45 minutes): > 200 µM | selectivity of dealkylation in panel of human P450 enzymes (FIG. 1) ([6]; 20 min, 10 pmole/well (2.5 pmole for CYP3A enzymes)): selective for CYP3A4 | rank of CYP1A1 in dealkylation of the substrate ([6]; CYP1A1): second best enzyme | solubility (remark to Km >200 uM) [7]: exceeds solubility | IC50 values with compound I as the substrate compared with BzRes [8]: tend to yield lower IC50 values
SMILES: O=c1cc(C(F)(F)F)c2ccc(OCc3ccccc3)cc2o1 [Compound I, 7-Benzyloxy-4-trifluoromethylcoumarin]

quantum yield of product relative to the product of benzyloxyresorufin [9]: greater quantum yield
SMILES: O=c1cc(C(F)(F)F)c2ccc(O)cc2o1 [Compound II, 7-hydroxy-4-trifluoromethylcoumarin]

SMILES: CC[C@H]1OC(=O)[C@H](C)[C@@H](O[C@H]2C[C@@](C)(OC)[C@@H](O)[C@H](C)O2)[C@H](C)[C@@H](O[C@@H]2O[C@H](C)C[C@H](N(C)C)[C@H]2O)[C@](C)(O)C[C@@H](C)C(=O)[C@H](C)[C@@H](O)[C@]1(C)O [Erythromycin]
IC50 ([10]; CYP3A4 IC50, substrate BzRes, substrate BzRes): 1.7 µM | IC50 ([10]; CYP3A4 IC50, substrate I, substrate compound I (100 uM)): 4.07 µM
